Results as given in paper PMC3445516 (PLoS ONE, 2012).

Key:
Experiment in all cases: Ambit kinase profiling, competition binding
TLK1 = molecular target: T1, TLK1 (Homo sapiens, UniProt Q9UKI8); conditions: compound concentration 10 uM, read-out: Percent Competition
T1 construct: purchased Ambit Biosciences (KINOMEscan)
Excerpt: (§1) Supplement pone.0044653.s004.xls, sheet "Compound 122" | column: Percent Competition

NEK5 = molecular target: T2, NEK5 (Homo sapiens, UniProt Q6P3R8); conditions: compound concentration 10 uM, read-out: Percent Competition
T2 construct: purchased Ambit Biosciences (KINOMEscan)
Excerpt: as §1

KIT(D816V) = molecular target: T3, KIT(D816V) (Homo sapiens, UniProt P10721, D816V); conditions: compound concentration 10 uM, read-out: Percent Competition
T3 construct: purchased Ambit Biosciences (KINOMEscan)
Excerpt: as §1

YSK1 = molecular target: T4, YSK1 (Homo sapiens, UniProt O00506); conditions: compound concentration 10 uM, read-out: Percent Competition
T4 construct: purchased Ambit Biosciences (KINOMEscan)
T4 sequence (O00506 whole entry): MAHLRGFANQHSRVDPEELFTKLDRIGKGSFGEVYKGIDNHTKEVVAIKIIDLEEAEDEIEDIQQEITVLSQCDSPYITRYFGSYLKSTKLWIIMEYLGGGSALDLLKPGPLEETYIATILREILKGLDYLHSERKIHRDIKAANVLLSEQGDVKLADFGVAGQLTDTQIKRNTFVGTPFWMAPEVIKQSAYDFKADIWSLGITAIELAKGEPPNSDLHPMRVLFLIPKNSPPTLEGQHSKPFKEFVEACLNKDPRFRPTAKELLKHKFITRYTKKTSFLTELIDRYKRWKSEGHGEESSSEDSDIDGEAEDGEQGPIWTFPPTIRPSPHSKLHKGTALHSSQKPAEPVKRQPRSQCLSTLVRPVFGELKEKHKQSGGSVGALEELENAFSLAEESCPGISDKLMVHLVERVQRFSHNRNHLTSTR
Excerpt: as §1

MAPKAPK5 = molecular target: T5, MAPKAPK5 (Homo sapiens, UniProt Q8IW41); conditions: compound concentration 10 uM, read-out: Percent Competition
T5 construct: purchased Ambit Biosciences (KINOMEscan)
Excerpt: as §1

CLK3 = molecular target: T6, CLK3 (Homo sapiens, UniProt P49761); conditions: compound concentration 10 uM, read-out: Percent Competition
T6 construct: purchased Ambit Biosciences (KINOMEscan)
Excerpt: as §1

FLT3 = molecular target: T7, FLT3 (Homo sapiens, UniProt P36888); conditions: compound concentration 10 uM, read-out: Percent Competition
T7 construct: purchased Ambit Biosciences (KINOMEscan)
Excerpt: as §1

MARK3 = molecular target: T8, MARK3 (Homo sapiens, UniProt P27448); conditions: compound concentration 10 uM, read-out: Percent Competition
T8 construct: purchased Ambit Biosciences (KINOMEscan)
Excerpt: as §1

BIKE = molecular target: T9, BIKE (Homo sapiens, UniProt Q9NSY1); conditions: compound concentration 10 uM, read-out: Percent Competition
T9 construct: purchased Ambit Biosciences (KINOMEscan)
Excerpt: as §1

CDK9 = molecular target: T10, CDK9 (Homo sapiens, UniProt P50750); conditions: compound concentration 10 uM, read-out: Percent Competition
T10 construct: purchased Ambit Biosciences (KINOMEscan)
Excerpt: as §1

MLK3 = molecular target: T11, MLK3 (Homo sapiens, UniProt Q16584); conditions: compound concentration 10 uM
T11 construct: purchased Ambit Biosciences (KINOMEscan)
Excerpt: as §1

[1] = molecular target: T12, RPS6KA2(Kin.Dom.2-C-terminal) (Homo sapiens, UniProt Q15349); conditions: compound concentration 10 uM, read-out: Percent Competition
T12 construct: RPS6KA2(Kin.Dom.2-C-terminal); purchased Ambit Biosciences (KINOMEscan)
Excerpt: as §1

[2] = molecular target: T13, JAK1(JH1domain-catalytic) (Homo sapiens, UniProt P23458); conditions: compound concentration 10 uM
T13 construct: JAK1(JH1domain-catalytic); purchased Ambit Biosciences (KINOMEscan)
Excerpt: as §1

CDK8 = molecular target: T14, CDK8 (Homo sapiens, UniProt P49336); conditions: compound concentration 10 uM
T14 construct: purchased Ambit Biosciences (KINOMEscan)
Excerpt: as §1

PKN1 = molecular target: T15, PKN1 (Homo sapiens, UniProt Q16512); conditions: compound concentration 10 uM, read-out: Percent Competition
T15 construct: purchased Ambit Biosciences (KINOMEscan)
Excerpt: as §1

VEGFR2 = molecular target: T16, VEGFR2 (Homo sapiens, UniProt P35968); conditions: compound concentration 10 uM, read-out: Percent Competition
T16 construct: purchased Ambit Biosciences (KINOMEscan)
T16 sequence (P35968 20-1356): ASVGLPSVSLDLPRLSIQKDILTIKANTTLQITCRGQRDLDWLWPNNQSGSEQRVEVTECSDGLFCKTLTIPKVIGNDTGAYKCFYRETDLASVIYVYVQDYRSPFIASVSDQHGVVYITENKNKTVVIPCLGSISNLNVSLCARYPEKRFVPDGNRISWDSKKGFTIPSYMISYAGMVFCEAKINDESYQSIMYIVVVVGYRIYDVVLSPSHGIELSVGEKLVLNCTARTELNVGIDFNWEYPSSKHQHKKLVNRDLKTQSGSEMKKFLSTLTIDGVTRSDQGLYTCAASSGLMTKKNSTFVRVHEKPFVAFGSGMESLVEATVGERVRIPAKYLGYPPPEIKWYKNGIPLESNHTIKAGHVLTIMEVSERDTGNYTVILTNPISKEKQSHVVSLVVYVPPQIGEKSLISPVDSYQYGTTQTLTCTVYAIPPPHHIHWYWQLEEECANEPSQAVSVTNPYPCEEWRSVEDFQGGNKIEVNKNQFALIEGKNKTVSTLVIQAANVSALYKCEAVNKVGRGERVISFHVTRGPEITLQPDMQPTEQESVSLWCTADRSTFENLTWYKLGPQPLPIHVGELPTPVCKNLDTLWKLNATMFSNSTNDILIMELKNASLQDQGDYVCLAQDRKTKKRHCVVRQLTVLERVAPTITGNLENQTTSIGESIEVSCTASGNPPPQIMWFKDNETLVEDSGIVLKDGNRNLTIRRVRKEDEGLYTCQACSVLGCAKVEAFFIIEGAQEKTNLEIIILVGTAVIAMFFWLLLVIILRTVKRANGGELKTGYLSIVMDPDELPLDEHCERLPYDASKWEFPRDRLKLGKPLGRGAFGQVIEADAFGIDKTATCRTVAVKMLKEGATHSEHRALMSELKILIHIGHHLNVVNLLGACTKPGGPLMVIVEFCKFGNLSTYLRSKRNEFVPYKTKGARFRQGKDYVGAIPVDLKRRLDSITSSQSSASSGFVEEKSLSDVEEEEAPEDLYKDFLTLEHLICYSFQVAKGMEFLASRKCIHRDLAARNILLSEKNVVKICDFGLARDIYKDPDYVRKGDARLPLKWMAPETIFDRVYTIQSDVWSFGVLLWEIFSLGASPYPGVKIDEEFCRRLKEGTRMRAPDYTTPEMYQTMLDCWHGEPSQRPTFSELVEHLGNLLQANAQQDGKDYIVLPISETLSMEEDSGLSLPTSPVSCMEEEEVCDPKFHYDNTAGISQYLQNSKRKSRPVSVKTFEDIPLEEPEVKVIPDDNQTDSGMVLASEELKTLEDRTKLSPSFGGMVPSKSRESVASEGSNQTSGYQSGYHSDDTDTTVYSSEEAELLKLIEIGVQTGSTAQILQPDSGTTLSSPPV
Excerpt: as §1

TXK = molecular target: T17, TXK (Homo sapiens, UniProt P42681); conditions: compound concentration 10 uM, read-out: Percent Competition
T17 construct: purchased Ambit Biosciences (KINOMEscan)
T17 sequence (P42681 whole entry): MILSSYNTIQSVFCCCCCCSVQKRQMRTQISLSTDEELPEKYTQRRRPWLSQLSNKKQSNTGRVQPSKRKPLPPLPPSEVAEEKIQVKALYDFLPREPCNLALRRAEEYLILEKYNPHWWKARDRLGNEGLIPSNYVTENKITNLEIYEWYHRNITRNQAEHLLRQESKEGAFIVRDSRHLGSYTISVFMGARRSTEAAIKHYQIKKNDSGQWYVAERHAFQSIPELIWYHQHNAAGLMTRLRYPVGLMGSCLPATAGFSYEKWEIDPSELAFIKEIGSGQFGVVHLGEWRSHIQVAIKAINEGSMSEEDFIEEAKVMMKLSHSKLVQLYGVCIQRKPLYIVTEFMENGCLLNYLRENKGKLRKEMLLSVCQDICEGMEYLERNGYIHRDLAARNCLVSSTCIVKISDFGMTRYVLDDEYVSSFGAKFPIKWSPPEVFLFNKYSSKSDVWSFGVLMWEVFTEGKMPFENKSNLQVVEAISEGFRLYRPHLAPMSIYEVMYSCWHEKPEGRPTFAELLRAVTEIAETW
Excerpt: as §1

[3] = molecular target: T18, RPS6KA1(Kin.Dom.1-N-terminal) (Homo sapiens, UniProt Q15418); conditions: compound concentration 10 uM, read-out: Percent Competition
T18 construct: RPS6KA1(Kin.Dom.1-N-terminal); purchased Ambit Biosciences (KINOMEscan)
T18 sequence (Q15418 1-391 limits assumed): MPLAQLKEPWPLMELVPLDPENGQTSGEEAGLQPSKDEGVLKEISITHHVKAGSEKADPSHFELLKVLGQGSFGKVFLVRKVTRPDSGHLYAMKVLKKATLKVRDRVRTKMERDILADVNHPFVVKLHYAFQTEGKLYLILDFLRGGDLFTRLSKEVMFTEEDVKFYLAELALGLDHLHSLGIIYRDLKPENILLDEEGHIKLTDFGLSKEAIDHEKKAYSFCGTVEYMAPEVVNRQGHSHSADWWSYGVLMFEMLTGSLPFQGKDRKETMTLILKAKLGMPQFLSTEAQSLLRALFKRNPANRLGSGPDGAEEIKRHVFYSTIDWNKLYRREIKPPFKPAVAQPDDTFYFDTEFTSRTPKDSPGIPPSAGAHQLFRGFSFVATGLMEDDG
Excerpt: as §1

BRSK2 = molecular target: T19, BRSK2 (Homo sapiens, UniProt Q8IWQ3); conditions: compound concentration 10 uM, read-out: Percent Competition
T19 construct: purchased Ambit Biosciences (KINOMEscan)
Excerpt: as §1

CAMKK2 = molecular target: T20, CAMKK2 (Homo sapiens, UniProt Q96RR4); conditions: compound concentration 10 uM, read-out: Percent Competition
T20 construct: purchased Ambit Biosciences (KINOMEscan)
Excerpt: as §1

[4] = molecular target: T21, RPS6KA5(Kin.Dom.1-N-terminal) (Homo sapiens, UniProt O75582); conditions: compound concentration 10 uM, read-out: Percent Competition
T21 construct: RPS6KA5(Kin.Dom.1-N-terminal); purchased Ambit Biosciences (KINOMEscan)
Excerpt: as §1

DLK = molecular target: T22, DLK (Homo sapiens, UniProt Q12852); conditions: compound concentration 10 uM
T22 construct: purchased Ambit Biosciences (KINOMEscan)
Excerpt: as §1

CHEK1 = molecular target: T23, CHEK1 (Homo sapiens, UniProt O14757); conditions: compound concentration 10 uM
T23 construct: purchased Ambit Biosciences (KINOMEscan)
Excerpt: as §1

PDGFRA = molecular target: T24, PDGFRA (Homo sapiens, UniProt P16234); conditions: compound concentration 10 uM, read-out: Percent Competition
T24 construct: purchased Ambit Biosciences (KINOMEscan)
Excerpt: as §1

KIT = molecular target: T25, KIT (Homo sapiens, UniProt P10721); conditions: compound concentration 10 uM, read-out: Percent Competition
T25 construct: purchased Ambit Biosciences (KINOMEscan)
Excerpt: as §1

RIOK1 = molecular target: T26, RIOK1 (Homo sapiens, UniProt Q9BRS2); conditions: compound concentration 10 uM, read-out: Percent Competition
T26 construct: purchased Ambit Biosciences (KINOMEscan)
T26 sequence (Q9BRS2 whole entry): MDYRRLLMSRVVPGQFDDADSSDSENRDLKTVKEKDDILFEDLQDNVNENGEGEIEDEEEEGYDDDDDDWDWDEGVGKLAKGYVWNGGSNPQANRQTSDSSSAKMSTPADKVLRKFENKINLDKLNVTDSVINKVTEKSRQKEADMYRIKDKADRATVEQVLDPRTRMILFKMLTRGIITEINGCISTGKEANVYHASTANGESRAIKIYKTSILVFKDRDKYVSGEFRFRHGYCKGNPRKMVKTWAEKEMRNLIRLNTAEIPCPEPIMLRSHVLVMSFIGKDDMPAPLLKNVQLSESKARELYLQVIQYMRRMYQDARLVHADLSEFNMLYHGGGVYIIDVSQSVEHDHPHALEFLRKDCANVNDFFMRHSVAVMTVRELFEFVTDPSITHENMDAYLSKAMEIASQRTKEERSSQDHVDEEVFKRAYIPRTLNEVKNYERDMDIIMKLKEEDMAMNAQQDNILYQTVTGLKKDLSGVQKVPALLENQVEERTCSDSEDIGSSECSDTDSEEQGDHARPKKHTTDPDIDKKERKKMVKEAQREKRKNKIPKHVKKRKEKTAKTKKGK
Excerpt: as §1

MEK2 = molecular target: T27, MEK2 (Homo sapiens, UniProt P36507); conditions: compound concentration 10 uM, read-out: Percent Competition
T27 construct: purchased Ambit Biosciences (KINOMEscan)
Excerpt: as §1

NEK1 = molecular target: T28, NEK1 (Homo sapiens, UniProt Q96PY6); conditions: compound concentration 10 uM, read-out: Percent Competition
T28 construct: purchased Ambit Biosciences (KINOMEscan)
Excerpt: as §1

TLK2 = molecular target: T29, TLK2 (Homo sapiens, UniProt Q86UE8); conditions: compound concentration 10 uM, read-out: Percent Competition
T29 construct: purchased Ambit Biosciences (KINOMEscan)
Excerpt: as §1

ABL1(F317L) = molecular target: T30, ABL1(F317L) (Homo sapiens, UniProt P00519, F317L); conditions: compound concentration 10 uM, read-out: Percent Competition
T30 construct: purchased Ambit Biosciences (KINOMEscan)
Excerpt: as §1

FGFR4 = molecular target: T31, FGFR4 (Homo sapiens, UniProt P22455); conditions: compound concentration 10 uM, read-out: Percent Competition
T31 construct: purchased Ambit Biosciences (KINOMEscan)
Excerpt: as §1

TRKA = molecular target: T32, TRKA (Homo sapiens, UniProt P04629); conditions: compound concentration 10 uM, read-out: Percent Competition
T32 construct: purchased Ambit Biosciences (KINOMEscan)
T32 sequence (P04629 33-796): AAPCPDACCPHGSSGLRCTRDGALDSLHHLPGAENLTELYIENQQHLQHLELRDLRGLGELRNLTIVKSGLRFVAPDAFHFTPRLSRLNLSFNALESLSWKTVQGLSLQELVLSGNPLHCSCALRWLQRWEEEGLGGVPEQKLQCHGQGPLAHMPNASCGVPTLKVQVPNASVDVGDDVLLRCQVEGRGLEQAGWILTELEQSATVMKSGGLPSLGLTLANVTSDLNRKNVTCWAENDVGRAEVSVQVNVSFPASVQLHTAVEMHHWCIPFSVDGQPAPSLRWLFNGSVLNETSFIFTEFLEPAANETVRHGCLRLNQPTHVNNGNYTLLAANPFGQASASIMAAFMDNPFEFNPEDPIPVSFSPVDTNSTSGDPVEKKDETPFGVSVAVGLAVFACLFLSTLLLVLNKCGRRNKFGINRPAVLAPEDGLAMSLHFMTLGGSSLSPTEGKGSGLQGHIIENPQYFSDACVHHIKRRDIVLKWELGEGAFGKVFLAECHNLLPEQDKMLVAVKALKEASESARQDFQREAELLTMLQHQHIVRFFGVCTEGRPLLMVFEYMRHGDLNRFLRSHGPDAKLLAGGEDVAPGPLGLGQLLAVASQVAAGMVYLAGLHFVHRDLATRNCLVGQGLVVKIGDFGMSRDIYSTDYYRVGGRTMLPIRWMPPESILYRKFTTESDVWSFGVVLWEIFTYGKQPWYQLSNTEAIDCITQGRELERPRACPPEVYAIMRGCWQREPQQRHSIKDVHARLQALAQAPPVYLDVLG
Excerpt: as §1

SRPK1 = molecular target: T33, SRPK1 (Homo sapiens, UniProt Q96SB4); conditions: compound concentration 10 uM, read-out: Percent Competition
T33 construct: purchased Ambit Biosciences (KINOMEscan)
Excerpt: as §1

NEK7 = molecular target: T34, NEK7 (Homo sapiens, UniProt Q8TDX7); conditions: compound concentration 10 uM, read-out: Percent Competition
T34 construct: purchased Ambit Biosciences (KINOMEscan)
Excerpt: as §1

DCAMKL1 = molecular target: T35, DCAMKL1 (Homo sapiens, UniProt O15075); conditions: compound concentration 10 uM
T35 construct: purchased Ambit Biosciences (KINOMEscan)
Excerpt: as §1

BRSK1 = molecular target: T36, BRSK1 (Homo sapiens, UniProt Q8TDC3); conditions: compound concentration 10 uM, read-out: Percent Competition
T36 construct: purchased Ambit Biosciences (KINOMEscan)
Excerpt: as §1

EPHA2 = molecular target: T37, EPHA2 (Homo sapiens, UniProt P29317); conditions: compound concentration 10 uM, read-out: Percent Competition
T37 construct: purchased Ambit Biosciences (KINOMEscan)
Excerpt: as §1

EPHA5 = molecular target: T38, EPHA5 (Homo sapiens, UniProt P54756); conditions: compound concentration 10 uM
T38 construct: purchased Ambit Biosciences (KINOMEscan)
Excerpt: as §1

TSSK1B = molecular target: T39, TSSK1B (Homo sapiens, UniProt Q9BXA7); conditions: compound concentration 10 uM, read-out: Percent Competition
T39 construct: purchased Ambit Biosciences (KINOMEscan)
Excerpt: as §1

MYO3B = molecular target: T40, MYO3B (Homo sapiens, UniProt Q8WXR4); conditions: compound concentration 10 uM, read-out: Percent Competition
T40 construct: purchased Ambit Biosciences (KINOMEscan)
Excerpt: as §1

T1 sequence (Q9UKI8 whole entry): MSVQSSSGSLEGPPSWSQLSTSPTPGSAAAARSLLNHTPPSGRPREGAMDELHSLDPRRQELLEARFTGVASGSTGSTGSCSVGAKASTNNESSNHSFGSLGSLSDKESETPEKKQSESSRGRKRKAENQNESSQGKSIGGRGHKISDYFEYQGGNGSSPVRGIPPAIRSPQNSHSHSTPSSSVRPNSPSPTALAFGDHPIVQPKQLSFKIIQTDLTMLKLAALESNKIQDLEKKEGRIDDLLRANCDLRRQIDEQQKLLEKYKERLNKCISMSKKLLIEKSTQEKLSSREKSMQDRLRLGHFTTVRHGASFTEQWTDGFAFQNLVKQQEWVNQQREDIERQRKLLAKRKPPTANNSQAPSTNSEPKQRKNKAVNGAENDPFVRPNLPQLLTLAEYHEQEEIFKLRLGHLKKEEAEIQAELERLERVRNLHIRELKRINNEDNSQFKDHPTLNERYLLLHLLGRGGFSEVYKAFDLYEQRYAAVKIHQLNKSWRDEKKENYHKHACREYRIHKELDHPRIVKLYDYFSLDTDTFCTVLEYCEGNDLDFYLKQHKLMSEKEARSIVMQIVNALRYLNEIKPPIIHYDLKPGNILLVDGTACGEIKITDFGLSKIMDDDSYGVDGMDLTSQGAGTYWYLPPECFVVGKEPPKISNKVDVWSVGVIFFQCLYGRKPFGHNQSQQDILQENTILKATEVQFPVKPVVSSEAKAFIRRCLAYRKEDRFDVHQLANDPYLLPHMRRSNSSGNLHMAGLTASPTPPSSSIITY

Fc1ccc(-c2c(-c3ccncc3)[nH]c3nccnc23)cc1 [RO1155697-000-005]
inhibition at 10 µM (TLK1): < 50% | inhibition at 10 µM (NEK5): < 50% | inhibition at 10 µM (KIT(D816V)): < 50% | inhibition at 10 µM (YSK1): < 50% | inhibition at 10 µM (MAPKAPK5): < 50% | inhibition at 10 µM (CLK3): < 50% | inhibition at 10 µM (FLT3): < 50% | inhibition at 10 µM (MARK3): < 50% | inhibition at 10 µM (BIKE): < 50% | inhibition at 10 µM (CDK9): < 50% | Percent Competition (MLK3): <50% | inhibition at 10 µM [1]: < 50% | Percent Competition [2]: <50% | Percent Competition (CDK8): <50% | inhibition at 10 µM (PKN1): < 50% | inhibition at 10 µM (VEGFR2): < 50% | inhibition at 10 µM (TXK): < 50% | inhibition at 10 µM [3]: < 50% | inhibition at 10 µM (BRSK2): < 50% | inhibition at 10 µM (CAMKK2): < 50% | inhibition at 10 µM [4]: < 50% | Percent Competition (DLK): <50% | Percent Competition (CHEK1): <50% | inhibition at 10 µM (PDGFRA): < 50% | inhibition at 10 µM (KIT): < 50% | inhibition at 10 µM (RIOK1): < 50% | inhibition at 10 µM (MEK2): < 50% | inhibition at 10 µM (NEK1): < 50% | inhibition at 10 µM (TLK2): < 50% | inhibition at 10 µM (ABL1(F317L)): < 50% | inhibition at 10 µM (FGFR4): < 50% | inhibition at 10 µM (TRKA): < 50% | inhibition at 10 µM (SRPK1): < 50% | inhibition at 10 µM (NEK7): < 50% | Percent Competition (DCAMKL1): <50% | inhibition at 10 µM (BRSK1): < 50% | inhibition at 10 µM (EPHA2): < 50% | Percent Competition (EPHA5): <50% | inhibition at 10 µM (TSSK1B): < 50% | inhibition at 10 µM (MYO3B): < 50%
